This series can be described thus: solubility test in water (ammonia alkali) by filter paper spot. The series is classed as physicochemical. The method, then: (Desalination process) After 83.0 parts of the compound of Formula (28) obtained in the fifth process was dissolved in 800 parts of water, 900 parts of methanol was added, and the deposited coloring matter was filtered and then dried to obtain 66.4 parts of desalted black coloring matter of Formula (28) (a compound No. 1 in Table 1: Na salt). The maximum absorption wavelength (λ max) of this coloring matter in water was 619 nm, and solubility test in water (ammonia alkali) by filter paper spot was no less than 100 g/l. [drawing 72]

One may read the solubility as how much of the substance goes into solution per volume. Low values mean a poorly soluble substance, high ones a readily soluble substance.

Molecules are shown by their SMILES. Where only a bound is given, the exact number is not on record here.

For `Nc1c(N=Nc2ccc3c(O)c(N=Nc4cc(C(=O)O)cc(C(=O)O)c4)c(S(=O)(=O)O)cc3c2S(=O)(=O)O)cc(S(=O)(=O)O)c2cc(S(=O)(=O)O)c(N=Nc3ccc4c(O)c(N=Nc5cc(C(=O)O)cc(C(=O)O)c5)c(S(=O)(=O)O)cc4c3S(=O)(=O)O)c(O)c12` [No. 17], the solubility is no less than 100 mg/mL.
With `COc1ccc(N=Nc2c(S(=O)(=O)O)cc3c(S(=O)(=O)O)c(N=Nc4cc(S(=O)(=O)O)c5cc(S(=O)(=O)O)c(N=Nc6ccc7c(O)c(N=Nc8ccc(OC)cc8S(=O)(=O)O)c(S(=O)(=O)O)cc7c6S(=O)(=O)O)c(O)c5c4N)ccc3c2O)c(S(=O)(=O)O)c1` [No. 19] the figure was no less than 100 mg/mL; with `COc1ccc(N=Nc2c(S(=O)(=O)O)cc3c(S(=O)(=O)O)c(N=Nc4cc(S(=O)(=O)O)c5cc(S(=O)(=O)O)c(N=Nc6ccc7c(O)c(N=Nc8ccccc8S(=O)(=O)O)c(S(=O)(=O)O)cc7c6)c(O)c5c4N)ccc3c2O)c(S(=O)(=O)O)c1` [No. 1], no less than 100 mg/mL.
The value for `COc1ccc(N=Nc2c(S(=O)(=O)O)cc3cc(N=Nc4c(S(=O)(=O)O)cc5c(S(=O)(=O)O)cc(N=Nc6ccc7cc(S(=O)(=O)O)c(N=Nc8ccc(OC)cc8S(=O)(=O)O)c(O)c7c6)c(N)c5c4O)ccc3c2O)c(S(=O)(=O)O)c1` [No. 21] was no less than 100 mg/mL.
In the case of `COc1ccc(N=Nc2c(S(=O)(=O)O)cc3cc(S(=O)(=O)O)c(N=Nc4cc(S(=O)(=O)O)c5cc(S(=O)(=O)O)c(N=Nc6ccc7c(O)c(N=Nc8ccccc8S(=O)(=O)O)c(S(=O)(=O)O)cc7c6)c(O)c5c4N)cc3c2O)c(S(=O)(=O)O)c1` [No. 2], the solubility was no less than 100 mg/mL.
The value for `Nc1c(N=Nc2ccc3c(O)c(N=Nc4ccc([N+](=O)[O-])cc4S(=O)(=O)O)c(S(=O)(=O)O)cc3c2S(=O)(=O)O)cc(S(=O)(=O)O)c2cc(S(=O)(=O)O)c(N=Nc3ccc4c(O)c(N=Nc5ccc([N+](=O)[O-])cc5S(=O)(=O)O)c(S(=O)(=O)O)cc4c3S(=O)(=O)O)c(O)c12` [No. 16] was no less than 100 mg/mL.
With `Nc1c(N=Nc2cc3c(O)c(N=Nc4ccc([N+](=O)[O-])cc4S(=O)(=O)O)c(S(=O)(=O)O)cc3cc2S(=O)(=O)O)cc(S(=O)(=O)O)c2cc(S(=O)(=O)O)c(N=Nc3ccc4c(O)c(N=Nc5ccc([N+](=O)[O-])cc5S(=O)(=O)O)c(S(=O)(=O)O)cc4c3S(=O)(=O)O)c(O)c12` [No. 13] the figure was no less than 100 mg/mL; with `Nc1c(N=Nc2ccc3cc(S(=O)(=O)O)c(N=Nc4ccc([N+](=O)[O-])cc4S(=O)(=O)O)c(O)c3c2)cc(S(=O)(=O)O)c2cc(S(=O)(=O)O)c(N=Nc3ccc4c(O)c(N=Nc5ccc([N+](=O)[O-])cc5S(=O)(=O)O)c(S(=O)(=O)O)cc4c3S(=O)(=O)O)c(O)c12` [No. 6], no less than 100 mg/mL.

The values above are taken from patent publication US20070227388A1, “Tetrakisazo Compound, Coloring Matter for Recording, Ink Composition and Colored Article” (priority 2004, published 2007).
